Measured values taken from patent US12268682B2, “Anticancer drug FL118 formulation for treatment of human cancer” (CANGET BIOTEKPHARMA, LLC, priority 2019, dated 2025).
Where two headings read alike, the source gives them in different places.

Key:
[1] = system: control genes (p21cip1/waf1, dihydrofolate reductase, human thrombin receptor, thymidine kinase); conditions: cited from earlier work
[2] = beagle dogs; cited from earlier work
BMMSCs = experiment: BMMSC viability (Cell TiterGlo)
Protocol: A pool (n=12) of newly diagnosed-MM patient derived BMMSCs were treated with serial concentrations of FL118. Cell viability was determined by Cell TiterGlo after indicated period of time. Error bars represent the SD of three independent experiments.
Bone Marrow derived Mesenchymal stromal cells (BMMSCs): Diagnostic BM aspirations from MM patients were used to isolate BMMNCs and culture adherent BMMSCs as described elsewhere (Prins H J, et al. Tissue Eng Part A. 2009, 15:3741-3751). To minimalize inter-individual variation, all experiments were performed with cells from a pool of BMMSCs derived from twelve MM patients at passage 3.

[3] = cited from earlier work
[4] = BALE/cj mice; cited from earlier work
MM cell lines = experiment: BLI-based cytotoxicity assay using LUC-transduced MM cell lines; design: species or system human
Protocol: Cell lines and culture: Luciferase (LUC)-transduced MM cell lines RPMI 8226, JJN3, UM9, MM1.s, U266, L363, and OPM-2 were cultured in RPMI 1640 (Life Technologies), supplemented with 10% heat-inactivated HyClone FetalClone I serum (GE Healthcare Life Sciences) and (penicillin, 10.000 U/mL; streptomycin, […]; InVitrogen,). HS-5 was cultured in DMEM (Life Technologies), supplemented with heat-inactivated FBS (Sigma) and antibiotics.

human tumors = conditions: cited from earlier work
[5] = system: pro-apoptotic signaling, cleavage of caspase-3 and PARP; experiment: Western blotting of FL118-treated MM cell lines; assay type: cell-based, human
Protocol: Western blotting: Untreated or FL118 treated (16 h) MM cell lines were washed twice with ice-cold PBS. Cell pellets were then snap-frozen and stored at −80° C. until further use. Pellets were dissolved in Radioimmunoprecipitation (RIPA) lysis buffer, supplemented with protease inhibitor cocktail (Roche) and incubated on ice for 45 minutes. Lysates were centrifuged at 14000 g for 10 minutes at 4° C. and supernatant was collected. Protein concentrations were determined by a DC protein assays (Bio-Rad). Samples were separated on 4-20% Mini-protean TGX precast gels (Bio-Rad) and proteins were transferred to Immobilon-FL PVDF membrane (Merck Millipore). After 1 h blocking with Odyssey Block Buffer (LI-COR) at room temperature, membranes were incubated with primary antibodies over night at 4° C. (anti-Mcl-1, anti-survivin Santa Cruz; anti-XIAP, anti-Bcl-2, anti-PUMA, anti-p21 Waf/Cip1, anti-PARP, anti-caspase-3 Cell Signaling Technology; anti-p53 DAKO; anti-NOXA, anti-Actin Merck Millipore). Blots were visualized by Odyssey infrared imaging (LICOR Biosciences) using IRDye 680 Goat-anti-Rabbit (LI-COR Lincoln) and IRDye 800CW Goat-anti-Mouse IgG (LI-COR Lincoln) according to manufacturer's instructions. Band intensities were quantified using Odyssey software.

UM9 cell line = experiment: BLI-based cytotoxicity assay with CAR T-cells or CTL 3AB11 on UM9; assay type: cell-based, human
Text: CD138-, BCMA- and CD38-specific CAR T-cells: All CAR T-cells with different specificities were generated with co-stimulatory domains 4-1BB, CD28, or CD28 supplemented with a separate 4-1BB ligand (28zBBL), with the technology as described previously (Kim J H, et al. PLoS One. 2011, 6:e18556; Drent E, et al. Clin Cancer Res. 2019, 25:4014-4025). CD138 CAR T-cells (nBT) were produced using single chain variable fragment (scFv) sequences of the published nBT062 monoclonal antibody (Ikeda H, et al. Clin Cancer Res. 2009, 15:4028-4037). BCMA CAR T-cells were produced using published scFv sequences derived from C11D5.3 monoclonal antibody (US2012/0082661 A1 (Shancer Z, et al. Antib Ther. 2018, 1:19-25) or from BCMA02 CAR (product name bb2121, WO 2016/094304 A2) (Raje N, et al. N Engl J Med. 2019, 380:1726-1737; Friedman K M, et al. Hum Gene Ther. 2018, 29:585-601). The generation and functional analysis of CD38 CAR T-cells with low (B1) or high (028) CD38-affinities has been described previously (Drent E, et al. Clin Cancer Res. 2019, 25:4014-4025; Drent E, et al. Mol Ther. 2017, 25:1946-1958). More detailed information on all CAR construct are listed in Table 1. CAR T-cells were tested 10-14 days after CAR transduction or frozen until testing. After thawing, CAR T-cells were cultured for 16 hours in 60 U/mL recombinant human IL-2 (R&D Systems)-containing culture medium (RPMI 1640 supplemented with heat-inactivated FBS (Sigma) and antibiotics), before using in experiments. Flow cytometry analysis, to determine the transduction efficiency and phenotypic profile of each CAR T-cell, was performed as previously described (Drent E, et al. Clin Cancer Res. 2019, 25:4014 4025; Drent E, et al. Mol Ther. 2017, 25:1946-1958) and illustrated in FIG. 10.
3AB11 was expanded using a feeder cell-cytokine mixture and cryopreserved until further use as described previously (Spaapen R, et al. Clin Cancer Res. 2007, 13:4009-4015).

Compound: CC[C@@]1(O)C(=O)OCc2c1cc1n(c2=O)Cc2cc3cc4c(cc3nc2-1)OCO4 [FL118]
- inhibitory effects on control genes [1]: no inhibitory effects
- hematopoietic and biochemical toxicities [2]: very low
- toxicity against BMMSCs (BMMSCs; serial concentrations of FL118): minimal toxicity
- toxic effects on BMMSCs (BMMSCs; up to a dose of 100 nM): no toxic effects
- oral availability ([3]; in vivo, po): orally available
- pharmacokinetics (PK) profile ([3]; intravenous administration, accumulated in tumor, rapidly cleared in blood stream): favorable
- hematopoietic and biochemical toxicities [4]: very low
- lysis of MM cell lines in the presence of BMMSCs (MM cell lines; 5 of 6 MM cell lines): not reduced, or even increased
- stroma-cell induced drug resistance against bortezomib and doxorubicin (MM cell lines; MM1.s and UM9 co-cultured with BMMSCs or HS-5, 48 hours): effectively abrogated
- combination activity with melphalan or bortezomib (MM cell lines; MM cell lines, 48 hours): at least additive activity
- lysis of MM cell line in the presence of BMMSCs (MM cell lines; cell line UM9): minimal reduction
- activity on irinotecan and topotecan-resistant human tumors (human tumors; animal models): effectively overcomes
- tumor elimination (human tumors; two-month experimental period): eliminate small and large volume human tumors without relapse in a high percentage of mice
- antitumor activity compared with FDA-approved anticancer drugs (human tumors; versus irinotecan, topotecan, doxorubicin, 5-FU, gemcitabine, docetaxel, oxaliplatin, cytoxan, cisplatin): significantly better antitumor activity
- pro-apoptotic signaling ([5]; high- and intermediate-susceptible MM1.s and U266, 16 hours): promotes pro-apoptotic signaling
- pro-apoptotic signaling ([5]; low-susceptible L363, 16 hours): not
- combination with anti-DR5 antibody Drozitumab, cell lysis (MM1.s cells; 24 hours, PBMC effectors): great synergistic activity
- microenvironment-induced immune resistance, combination with Drozitumab (MM1.s cells; presence of BMMSCs): reversed
- BMMSC protective effect against CTL 3AB11 lysis (UM9 cell line; 24 hours): completely abrogated
- combination effect with CTL 3AB11 (UM9 cell line; Chou-Talalay): synergistic fashion
- combination index (CI) values, FL118 and CAR T-cells (UM9 cell line; Chou-Talalay, especially in the presence of BMMSCs): below 1
- BMMSC-mediated protection against CAR T-cells (UM9 cell line; combined with CAR T-cells, even at doses as low as 3 nM): effectively modulated
- lysis of MM-cells by FL118 alone (UM9 cell line; regardless of the presence of BMMSCs, 24 hours): dose-dependent lysis
